Source: patent publication US3983230A, “Antibiotic siomycin A derivatives and production thereof” (priority 1973, dated 1976)
Values after ≈ are worked out from the molar mass of the structure shown. Where two headings read alike, the source gives them in different places.

Columns and labels:
Bacillus anthracis = format: cell-based
[1] = tested on: Streptococcus pyogenes C-203; assay: Minimum inhibitory concentration, Streptococcus pyogenes C-203; format: cell-based
[2] = tested on: Diplococcus pneumoniae type I; assay: Therapeutic effect in mice infected with Diplococcus pneumoniae type I; format: in vivo; conditions: i.p. infection with Diplococcus pneumoniae type I, subcutaneous at 0, 4 and 8 hours, survival 7 days
Method: (§1) The therapeutic effect of sodium salts of the half ester of siomycin A with dicarboxylic acid in mice against experimental infections are shown in Table 3.
(§2) A group of 10 mice weighing 19-21 g were infected with a standardized inoculum of Diplococcus pneumoniae type or Streptococcus pyogenes C-203 by intraperitoneal injection.
(§3) The sodium salts of half esters of siomycin A with the dicarboxylic acid were administered subcutaneously to the mice at 0, 4 and 8 hours after infection and survival of infected mice was examined for 7 days after infection.

[3] = Qualitative solubility in various solvents (text, Examples)
[4] = tested on: Staphylococcus aureus 80257; assay: Minimum inhibitory concentration, Staphylococcus aureus 80257; format: cell-based
gram-positive bacteria = assay: Antibacterial activity against gram-positive bacteria; format: cell-based
Excerpt: The half esters of siomycin A and salts thereof show activities against a variety of microorganisms.

[5] = tested on: Streptococcus pyogenes C-203; assay: Therapeutic effect in mice infected with Streptococcus pyogenes C-203; format: in vivo; conditions: i.p. infection with Streptococcus pyogenes C-203, subcutaneous at 0, 4 and 8 hours, survival 7 days
Method: as §1, §2, §3

[6] = Solubility in 0.1% aqueous sodium hydrogencarbonate (distilled water for sodium salts), Table 1; format: physicochemical; conditions: 0.1% aqueous solution of sodium hydrogencarbonate
Excerpt: The solubility in various solvents of several specific products obtained by the process of the present invention are shown in Table 1 in comparison with the solubility of siomycin A.

[7] = tested on: Bacillus subtilis PCI 219; assay: Minimum inhibitory concentration, Bacillus subtilis PCI 219; format: cell-based
[8] = tested on: Diplococcus pneumoniae type I; assay: Minimum inhibitory concentration, Diplococcus pneumoniae type I; format: cell-based
[9] = tested on: Staphylococcus aureus FDA 219PJC-1; assay: Minimum inhibitory concentration, Staphylococcus aureus FDA 219PJC-1; format: cell-based
[10] = background, cited from earlier work

**Q.** Which results are given for `C=C(NC(=O)C(=C)NC(=O)c1csc(C2=N[C@@H]3c4csc(n4)[C@H]4NC(=O)c5csc(n5)[C@H]([C@](C)(O)[C@@H](C)O)NC(=O)[C@H]5CSC(=N5)/C(=C/C)NC(=O)[C@H]([C@@H](C)O)NC(=O)c5csc(n5)[C@]3(CC2)NC(=O)[C@H](C)NC(=O)C(=C)NC(=O)C(=C)NC(=O)[C@H](C(C)C)N[C@@H]2C=Cc3c([C@H](C)O)cc(nc3[C@H]2O)C(=O)O[C@@H]4C)n1)C(N)=O` [Siomycin A, siomycin A]?
**A.** Minimum inhibitory concentration (Bacillus anthracis): 0.78 µg/mL (≈ 0.473 µM); Minimum inhibitory concentration [1]: 0.1 µg/mL (≈ 0.0606 µM); ED50 [2]: 23.2 mg/kg; Solubility ([3]; dilute alkaline solution): almost insoluble; Solubility ([3]; water): almost insoluble; Minimum inhibitory concentration [4]: 0.39 µg/mL (≈ 0.237 µM); minimum inhibitory concentration against gram-positive bacteria (gram-positive bacteria): 0.1 to 0.78 µg/mL; ED50 [5]: 75.2 mg/kg; Solubility [6]: 0.00015%; Minimum inhibitory concentration [7]: 0.39 µg/mL (≈ 0.237 µM); Minimum inhibitory concentration [8]: 0.1 µg/mL (≈ 0.0606 µM); Minimum inhibitory concentration [9]: 0.39 µg/mL (≈ 0.237 µM); Solubility ([10]; butanol): slightly soluble; Solubility ([10]; chloroform): slightly soluble; Solubility ([10]; dioxane): soluble; Solubility ([10]; ethanol): slightly soluble; Solubility ([10]; methanol): slightly soluble; Solubility ([10]; water): almost insoluble
